# Source: US20060229276A1, “Use of glycosoaminoglycans for the prevention and treatment of sepsis” (priority 2004, published 2006)
# “Also recorded” adds a separate entry of the source. Where two headings read alike, the source gives them in different places.
# Key:
# [1] = test system: S. aureus strain K2; experiment: S. aureus strain K2-induced sepsis in mice (survival, weight, clinical appearance); settings: for survival versus PBS control: 20 μg/mouse s.c.
# Protocol: FIGS. 5A-B show the dose effect of dermatan sulfate on the survival of mice infected with a […] dose S. aureus. S. aureus K2 was grown to log phase and set via a nephelometer to an LD60-80% (30 million cfu per mouse in FIG. 5A; 35 million cfu per mouse in FIG. 5B). Balb/c mice were infected intravenously (0.5 ml) on day zero. Animals were then inoculated subcutaneously with low molecular weight heparin or dermatan sulfate (20 μg/mouse) at two hour and subsequently every twenty-four hours. Control group mice were injected with PBS. Clinical appearance and weight was recorded daily.
# FIGS. 6A-B show the dose effect of dermatan sulfate (DS) on mice infected with S. aureus strain K2. S. aureus strain K2 was grown to log phase and set via a nephelometer to a lethal concentration of 40 million cfu per mouse. Balb/c mice were infected intravenously with 40 m cfu's of S. aureus K2. Treatment groups were injected subcutaneously with increasing doses of dermatan sulfate (0.1 to 12.5 mg/kg body weight or 2 to 250 μg of dermatan sulfate) at two hour and subsequently every twenty-four hours. Control group mice were injected subcutaneously with PBS. Clinical appearance and weight were recorded daily. […] In FIG. 6A, n=15 in PBS and n=10 for all doses of dermatan sulfate and in FIG. 6B, n=10 for both the doses of dermatan sulfate.
# FIGS. 7A-B show the dose effect of dermatan sulfate (DS) on mice infected with S. aureus strain K2. S. aureus strain K2 was grown to log phase and set via a nephelometer to a lethal concentration of 40 million cfu per mouse. Balb/c mice were infected intravenously with 40 m cfu's of S. aureus K2 on day 0. Treatment groups were injected subcutaneously with increasing doses of dermatan sulfate (0.025 to 25 mg/kg body weight or 0.5 to 500 μg of dermatan sulfate) at two hour and subsequently every twenty-four hours. Control group mice were injected subcutaneously with PBS. Clinical appearance and weight were recorded daily.
# [2] = test system: extrinsic pathway of coagulation; experiment: Prothrombin time in plasma of S. aureus K2-infected mice; format: in vivo, Balb/c mice; settings: 48 hours after infection
# Protocol: (§1) FIGS. 8A-B show the effect of dermatan sulfate (DS) on the prothrombin time (FIG. 8A) and partial thromboplastin time (FIG. 8B) of mice treated with dermatan sulfate after the onset of S.aureus-induced sepsis. […] Control group mice were injected subcutaneously with PBS or dermatan sulfate (50 or 500 μg dermatan sulfate per mouse per day). Mice were bled at 48 hours after infection via tail vein. Blood collected in 0.12 M sodium citrate in a 9:1 ratio of blood to citrate. Samples were centrifuged and plasma collected and frozen at −20° C. until use. Plasmas were diluted 1:3 in Owrens buffer for analysis. Prothrombin time (PT) and partial thromboplastin time (PTT) were determined utilizing an XM coagulometer according to manufacturer's instructions.
# To ascertain the physiological pathway that is modulated by dermatan sulfate, coagulation profiles of mice treated with low and high concentrations of the compound in the context of S. aureus-induced sepsis was assessed. The extrinsic pathway of coagulation was first evaluated by measuring the prothrombin time (PT) in the plasma of mice forty eight hours after infection with S. aureus and treatment with dermatan sulfate. […] Prothrombin time (PT) was determined utilizing an XM coagulometer according to the manufacturer's instructions.
# [3] = test system: intrinsic pathway of coagulation; experiment: Partial thromboplastin time in plasma of S. aureus K2-infected mice; format: in vivo, Balb/c mice; settings: 48 hours after infection
# Protocol: as §1
# The effect of dermatan sulfate on the intrinsic pathway of coagulation was determined by measuring the active partial thromboplastin time. Plasma samples from S.aureus infected mice was prepared as described in example 7. Partial thromboplastin time (PTT) was determined utilizing an XM coagulometer according to the manufacturer's instructions.
# [4] = test system: Fibrinogen; experiment: Fibrinogen levels in plasma of S. aureus K2-infected mice; format: in vivo, Balb/c mice; settings: 50-500 μg/day s.c.; 48 hours after infection
# Protocol: (§2) Control group mice were injected subcutaneously with PBS or dermatan sulfate (50 or 500 μg dermatan sulfate per mouse per day). Mice were bled at 48 hours after infection via tail vein. Blood collected in 0.12 M sodium citrate in a 9:1 ratio of blood to citrate. Samples were centrifuged and plasma collected and frozen at −20° C. until use. Plasmas were diluted 1:9 in Owrens buffer for analysis. Fibrinogen levels were determined utilizing control standards as measured by an XM coagulometer according to manufacturer's instructions.
# Plasma samples from S.aureus infected mice were prepared as described in example 7. Fibrinogen levels were determined utilizing control standards using an XM coagulometer according to manufacturer's instructions.
# [5] = test system: protein C; experiment: Protein C levels in plasma of S. aureus K2-infected mice; format: in vivo, Balb/c mice; settings: 48 hours
# Protocol: as §2, with “Balb/c mice were infected intravenously with 40 million cfu's of S. aureus K2 on day zero. […] Control” for “Control”, “Protein C” for “Fibrinogen”, “as percent levels based on” for “determined utilizing control”, “and its ability to prolong partial thromboplastin time. Clotting assay was evaluated using” for “as measured by”
# Plasma samples from S.aureus infected mice were prepared as described in Example 7. Protein C in the plasma was determined as percent levels based on standards and their ability to prolong partial thromboplastin time. Clotting assay was evaluated using an XM coagulometer according to manufacturer's instructions.
# [6] = Toxicity of high dose dermatan sulfate in non infected control mice; format: in vivo; settings: 500 μg/day
# Protocol: A very high dose of approximately 25 mg/kg body weight is detrimental to the infected mice after the onset of sepsis (FIG. 7A). […] But, a high dose of dermatan sulfate was non-toxic to non infected control mice treated with 500 μg/day of dermatan sulfate.
# [7] = test system: S. aureus strain CYL574; experiment: S. aureus strain CYL574-induced septic death in mice (survival); format: in vivo, Balb/c mice
# Protocol: Mice in control group were injected intraperitoneally with PBS.
# Experiments evaluating the effects of low molecular weight heparin in preventing mortality and/or prolonging survival were conducted in an animal model of S. aureus-induced septic death.
# [8] = test system: S. aureus; format: in vivo, mice; settings: 100 or 50 μg per mouse
# Protocol: The therapeutic index of low molecular weight heparin was also evaluated by using several-fold concentrations in excess of the clinical dose (1 mg/kg or 20 μg/mouse). […] These adverse effects included hematuria, subcutaneous hematomas, and bleeding at the site of injection. The majority of the mice that died in the low molecular weight heparin group were documented with at least one episode of bleeding. […] Insight into the actual cause of bleeding can be gained by examining the coagulation profiles.
# [9] = in vivo, cited from earlier work
# [10] = 30 million cfu K2, FIG. 5A, n=15
# [11] = 35 million cfu K2, FIG. 5B, n=20
# [12] = infected mice treated with 50 or 500 μg per mouse s.c.
substance,measurement,setting,value
chondroitin sulfate A,effect of continued daily high doses in infected mice,"[1]; s.c., continued daily high doses",detrimental
same,survival as compared to infected mice treated with PBS,"[1]; s.c., greater than 10 mg/kg body weight or greater than 200 μg per mouse, FIG. 4",prolonged survival
same,survival,"[1]; s.c., very high doses >100 mg/kg body weight, first days after onset of sepsis",augmented survival
dermatan sulfate,survival versus PBS control,[1]; [10],substantial survival rate
same,survival versus PBS control,[1]; [11],dramatic survival rate
same,clinical state,"[1]; 500 μg/day s.c., first twenty four to forty eight hours",did clinically well
same,effect of very high dose on infected mice (survival),"[1]; approximately 25 mg/kg body weight, 500 μg/day s.c., FIG. 7A",detrimental; also recorded: poor survival
same,weight of surviving animals,"[1]; higher-survival dose versus lower doses, FIG. 6B",substantially lost more weight
same,"protection, high versus lower doses","[1]; s.c., high doses >1 mg/Kg versus <1 mg/Kg, FIGS. 6A-7B",more protective than lower doses
same,survival rates with tapered dose,"[1]; tapering from 16 mg/kg, halved every day to approximately 0.025 mg/Kg on day 13, FIG. 7B",optimal survival rates
same,prothrombin time as compared to infected PBS treated mice,[2]; 500 μg/day (high dose) s.c.,increase the prothrombin time; also recorded: significant increase in prothrombin time
same,prothrombin time,[2]; [12],contracted prothrombin times
same,partial thromboplastin time as compared to infected PBS treated mice,[3]; 50 μg/day (low dose) s.c.,decrease the partial throboplastin time; also recorded: slight decrease
same,partial thromboplastin time as compared to PBS treated infected mice,[3]; 500 μg/day s.c.,significantly prolonged
same,partial thromboplastin time,[3]; [12],prolonged partial thromboplastin time
same,fibrinogen levels as compared to infected PBS treated mice,[4],did not exhibit any significant difference
same,protein C levels,"[5]; 50 μg/day s.c. (low doses, <10 mg/Kg)",decrease protein C levels; also recorded: broad range of protein c levels that were higher and lower
same,protein C levels,"[5]; 500 μg/day s.c. (high levels, >20 mg/kg), 20 mg/kg",increase plasma C levels; also recorded: dramatically increase protein C levels
same,toxicity in non infected control mice,[6],non-toxic
low molecular weight heparin,survival rate,"[7]; high dose 5 mg/kg i.p., after infection, p=0.0017 versus control",92.8%
same,survival rate,"[7]; prophylaxis dose 1 mg/kg i.p., 14 days after infection, PBS control 33.3%",66.7%
same,survival versus PBS control,[1]; [10],higher rate a survival than the control group
same,survival versus PBS control,[1]; [11],higher survival rate than the PBS-treated mice
same,survival rate,"[1]; 1 mg/kg i.p., 72 hr, supra-lethal dose K2, PBS control 20%",70%
same,survival rate,"[1]; 1 mg/kg i.p., 96 hr, supra-lethal dose K2, PBS control 0%, p=0.01",60%
same,survival rate,"[1]; 5 mg/kg i.p., 96 hours after infection, PBS control 0%",22.2%
same,"survival, low versus high doses","[1]; s.c., approximately <0.5 mg/kg per day compared with >1 mg/kg per day, FIG. 3",increased survival
same,survival rates as compared to control mice treated with PBS,[8]; data not shown,lower survival rates
same,adverse effects (bleeding),"[8]; high doses, infected mice",signs of bleeding after only 48 hr
same,plasma half-life,[9]; iv,2 to 4 h
same,plasma half-life,[9]; sc,3 to 6 h
same,plasma half-life relative to unfractionated heparin,[9],2-4 times
